{"source": "patent US7226947B1", "about": "“Use of creatine as a fat substitute” (AlzChem Trostberg GmbH, priority 1999, dated 2007)", "tested_on": "growing hens", "test": "Effect of addition of creatine in the feed for growing hens", "type": "in vivo", "conditions": "0.2% creatine (0.2 g/kg) added to air-dried feed, growing period of 41 days", "from_the_text": "The effect of addition of creatine in the feed for growing hens was studied. It was found here that by adding 0.2% creatine […] to the air-dried feed for a growing period of 41 days, an increase in the final weight of 4% compared with previous feeding methods (without creatine addition) was achieved. […] The feed consumption decreased here by about 2–3% in comparison with previous feeding methods.", "data": [{"compound": "CN(CC(=O)O)C(=N)N", "note": "[creatine]", "values": [{"measurement": "decrease in feed consumption in comparison with previous feeding methods", "result": "2–3%"}, {"measurement": "increase in the final weight compared with previous feeding methods (without creatine addition)", "result": 4, "unit": "%"}, {"measurement": "meat quality", "result": "improved quality"}, {"measurement": "nature of the increase in weight (meat vs fat; lean body mass index)", "result": "only by increase in meat, but not by increase in fat"}]}]}
